Results reported in US12247032B2, “Substituted pyrazolo[1,5-a]pyrimidines as inhibitors of JAK kinases” (Genentech, Inc., priority 2019, dated 2025).

Legend:
[1] = molecular target: T1, Recombinant human JAK2 kinase domain protein (Residues 812-1132) (Homo sapiens, UniProt O60674); assay: JAK2 biochemical assay (microfluidic mobility shift, peptide phosphorylation); conditions: 25 μM ATP, 0.2 nM total JAK2; Ki calculated from Ki app (tight-binding, competitive); read-out: Biochem JAK2 Ki
T1 construct: human JAK2 kinase domain protein (Residues 812-1132); made in house; host or cells: insect cells
Description: (§1) The in vitro biochemical assays quantify JAK-catalyzed phosphorylation of a synthetic peptide, as detected using a LabChip® EZ Reader II microfluidic mobility shift instrument (PerkinElmer; Waltham, MA). The substrate peptide Y-1B has the sequence 5-FAM-VALVDGYFRLTT-NH2. Y-1B is fluorescently labeled on the N-terminus with 5-FAM (5-carboxyfluorescein) and contains a single tyrosine residue (Y) that can be phosphorylated by JAK activity. The substrate peptide stock is prepared in DMSO at 5 mM. Purified recombinant human JAK1 kinase domain protein (Residues 854-1154) was expressed in insect cells and procured from Proteros Biostructures GmbH (Martinsried, Germany). Recombinant human JAK2 kinase domain protein (Residues 812-1132) was expressed in insect cells and purified at Genentech, Inc. (South San Francisco, CA).
(§2) The kinase reaction mixtures contained 100 mM 4-(2-hydroxyethyl)-1-piperazineethanesulfonic acid (HEPES) buffer (pH 7.2), 10 mM magnesium chloride, 0.015% Brij® 35, 4 mM dithiothreitol, 1.5 μM Y-1B peptide substrate, 25 μM adenosine triphosphate (ATP), 1 nM total JAK1 or 0.2 nM total JAK2, and up to 1000 nM test compound in a final concentration of 2% (volume to volume [v/v]) DMSO. In each titration experiment, test compound was tested in duplicate at each of the twelve concentrations. Blank reactions contained ATP, peptide, and DMSO, but no JAK or test compound, whereas uninhibited control reactions contained ATP, peptide, JAK, and DMSO, but no test compound.
(§3) Peptide plus ATP mixture (24 μL) was added to 1 μL of test compound in DMSO (or DMSO alone). The reactions were initiated by adding 25 μL of JAK enzyme to the inhibitor/peptide/ATP mixture before thoroughly mixing the resultant solution. Reactions were incubated at room temperature (22° C.-23° C.) in a final volume of 50 μL per well in 384-well plates. After a 30-minute incubation, the reactions were stopped by adding 25 μL of 150 mM ethylenediaminetetraacetic acid in 100 mM HEPES buffer (pH 7.2) containing 0.015% Brij 35 to each well.
(§4) In each reaction, the residual Y-1B substrate and the phospho-peptide product generated were separated using the EZ Reader 1 instrument. Electrophoretic separation of molecules of product from molecules of substrate was achieved using downstream and upstream voltages of −500 and −2600 V, respectively, at an operating pressure of −1.3 psi. The 5-FAM group present on both the substrate and product peptides was excited at 488 nm, the fluorescence was detected at 530 nm, and the peak heights were reported.
(§5) The extent (or percent) of conversion of substrate to product was calculated from the corresponding peak heights in the electropherogram using HTS Well Analyzer software, Version 5.2 (PerkinElmer), and the following equation (Equation 1): % conversion=[P[…](S+P)]×100 Equation 1 where S and P represent the peak heights of the substrate and product, respectively. After any baseline signal from blank wells containing no JAK was subtracted from the signal of all test wells, the % conversion data were converted to fractional activity as shown in Equation 2, where νi and νo are the % conversion in the presence and absence of test compound, respectively. The % conversion observed in the uninhibited control reactions containing JAK and DMSO vehicle, but no test compound, was defined to have fractional activity=1 (with no inhibitor present, νi=νo), whereas blank wells with no JAK were defined as having fractional activity=0. Fractional activity was plotted against test compound concentration and the data were fitted using XLfit software (IDBS; Guildford, United Kingdom) to a tight-binding apparent inhibition constant (Ki^app) quadratic equation (see Equation 2) (Williams J W, Morrison J F. The kinetics of reversible tight-binding inhibition. Methods Enymol 1979; 63:437-67), which was used to calculate fractional activity and Ki^app […]

[2] = molecular target: T2, recombinant human JAK1 kinase domain protein (Residues 854-1154) (Homo sapiens, UniProt P23458); assay: JAK1 biochemical assay (microfluidic mobility shift, peptide phosphorylation); conditions: 25 μM ATP, 1 nM total JAK1; Ki calculated from Ki app (tight-binding, competitive); read-out: Biochem JAK1 Ki
T2 construct: human JAK1 kinase domain protein (Residues 854-1154); purchased Proteros Biostructures GmbH (Martinsried, Germany); host or cells: insect cells
Description: as §1, §2, §3, §4, §5

[3] = test system: JAK1 (IL-13-stimulated STAT6 phosphorylation in BEAS-2B cells); assay: P-STAT6 BEAS-2B+IL-13 cell assay; assay type: cell-based, human; conditions: Homo sapiens, BEAS-2B, 1 h, 1 hour compound, IL-13 15 minutes, IC50 by four-parameter fit, read-out: Cellular JAK1 PSTAT6 BEAS2B + IL13
Description: In order to study the effect of JAK1 inhibitors in a cell line that is relevant to the cell biology of human asthma, an IL-13-stimulated STAT6 phosphorylation assay in the human lung bronchial epithelial BEAS-2B cell line was developed.
BEAS-2B cells (ATCC® CRL-9609™) were grown in Bronchial Epithelial Growth Medium (BEGM) (Lonza Catalog No. CC-3170; Walkersville, MD; or PromoCell Catalog No. C-21060; Heidelberg, Germany). Test compound stock solutions (0.5 mM in DMSO) were serially diluted 1:2 in DMSO to generate a 10-point concentration curve (at 500× test concentration), which was further diluted by a 50-fold dilution step in BEGM to generate a 10× concentration curve (in 2% DMSO). Cells were plated at 100,000 cells/well in 200 μL of BEGM in 96-well plates and incubated for 48 hours at 37° C. in a humidified incubator. Medium was aspirated from the cells and replaced with 70 μL of fresh BEGM. Diluted test compound (10 μL; or 2% DMSO in assay medium) was added to the cells, and the plates were incubated for 1 hour at 37° C. in a humidified incubator. Twenty μL of 250 ng/mL human recombinant IL-13 (Bio Techne Catalog No. 213-ILB) was then added to the cells and incubated for 15 minutes at 37° C. Medium was aspirated from the cells and 60 μL of ice-cold 1×cell lysis buffer (Cell Signaling Technologies; Catalog No. 9803S) containing 1 mM PMSF was added to the cells. Assay plates were incubated at −80° C. for at least 1 hour. P-STAT6 was measured by coating GAR plates (MSD; Catalog No. L45RA-1) with rabbit anti-human total STAT6 antibody (Cell Signaling Technologies; Catalog No. 9362S), incubating the cell lysates in the coated plates overnight at 4° C., and then detecting with mouse anti-phospho-STAT6 (Tyr641) Clone 16E12 antibody (Millipore; Catalog No. 05-590, custom labeled by MSD with SULFO-tag) using standard MSD plate processing, washing, and detection protocols. Plates were read on the MESO SECTOR S600.
Data analysis was performed by subtracting negative control values from all wells and determining percent of control using the positive control values; the IC50 was determined with a four-parameter logistic fit model as shown in Equation 4.

T1 sequence (O60674 812-1132): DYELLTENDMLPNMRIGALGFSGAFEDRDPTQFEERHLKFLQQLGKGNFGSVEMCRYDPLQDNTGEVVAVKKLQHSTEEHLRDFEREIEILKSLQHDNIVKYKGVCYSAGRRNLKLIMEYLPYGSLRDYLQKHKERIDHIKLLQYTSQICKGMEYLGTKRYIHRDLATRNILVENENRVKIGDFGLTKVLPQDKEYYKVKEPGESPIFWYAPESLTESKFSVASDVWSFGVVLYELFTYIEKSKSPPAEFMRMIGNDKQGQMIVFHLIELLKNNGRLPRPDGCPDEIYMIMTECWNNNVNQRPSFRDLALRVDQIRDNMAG
T2 sequence (P23458 854-1154): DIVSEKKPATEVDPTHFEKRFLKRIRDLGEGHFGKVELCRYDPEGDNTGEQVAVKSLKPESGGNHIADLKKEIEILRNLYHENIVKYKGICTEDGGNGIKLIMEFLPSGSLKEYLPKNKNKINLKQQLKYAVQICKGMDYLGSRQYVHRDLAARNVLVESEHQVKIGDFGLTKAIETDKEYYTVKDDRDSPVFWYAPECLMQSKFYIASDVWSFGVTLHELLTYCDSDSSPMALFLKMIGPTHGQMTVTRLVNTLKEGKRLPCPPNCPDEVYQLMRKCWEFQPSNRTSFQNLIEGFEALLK

| SMILES | Ki [1] [nM] | Ki [2] [nM] | IC50 [3] [nM] |
| --- | --- | --- | --- |
| O=C(Nc1cn(Cc2nnnn2C2CCNCC2)nc1-c1cc(OC(F)F)ccc1OC(F)F)c1cnn2cccnc12 [Example 24, N-[3-[2,5-bis(difluoromethoxy)phenyl]-1-[[1-(4-piperidyl)tetrazol-5-yl]methyl]pyrazol-4-yl]pyrazolo[1,5-a]pyrimidine-3-carboxamide] | 0.91 | 0.83 | 470 |
| NCCN1CCC(n2nnc(Cn3cc(NC(=O)c4cnn5cccnc45)c(-c4cc(OC(F)F)ccc4OC(F)F)n3)n2)CC1 [Example 25, N-[1-[[2-[1-(2-aminoethyl)-4-piperidyl]tetrazol-5-yl]methyl]-3-[2,5-bis(difluoromethoxy)phenyl]pyrazol-4-yl]pyrazolo[1,5-a]pyrimidine-3-carboxamide] | 0.8 | 0.77 | 300 |
| CN1CC(Cn2nnc(Cn3cc(NC(=O)c4cnn5cccnc45)c(-c4cc(OC(F)F)ccc4OC(F)F)n3)n2)C1 [Example 32, N-[3-[2,5-bis(difluoromethoxy)phenyl]-1-[[2-[(1-methylazetidin-3-yl)methyl]tetrazol-5-yl]methyl]pyrazol-4-yl]pyrazolo[1,5-a]pyrimidine-3-carboxamide] | 0.62 | 0.72 | 22 |
| CNCCN1CC(n2nnc(Cn3cc(NC(=O)c4cnn5cccnc45)c(-c4cc(OC(F)F)ccc4OC(F)F)n3)n2)C1 [Example 34, N-[3-[2,5-bis(difluoromethoxy)phenyl]-1-[[2-[1-[2-(methylamino)ethyl]azetidin-3-yl]tetrazol-5-yl]methyl]pyrazol-4-yl]pyrazolo[1,5-a]pyrimidine-3-carboxamide] | 0.29 | 0.4 | 180 |
| CSc1ccc(OC(F)F)c(-c2nn(Cc3nnn(CCN)n3)cc2NC(=O)c2cnn3cccnc23)c1 [Example 35, N-[1-[[2-(2-aminoethyl)tetrazol-5-yl]methyl]-3-[2-(difluoromethoxy)-5-methylsulfanyl-phenyl]pyrazol-4-yl]pyrazolo[1,5-a]pyrimidine-3-carboxamide] | 0.18 | 0.37 | 13 |
| CSc1ccc(OC(F)F)c(-c2nn(Cc3nnn(CCN(C)C)n3)cc2NC(=O)c2cnn3cccnc23)c1 [Example 36, N-[3-[2-(difluoromethoxy)-5-methylsulfanyl-phenyl]-1-[[2-[2-(dimethylamino)ethyl]tetrazol-5-yl]methyl]pyrazol-4-yl]pyrazolo[1,5-a]pyrimidine-3-carboxamide] | 0.22 | 0.37 | 17 |

The next lines start with results.

| Ki [1] [nM] | Ki [2] [nM] | SMILES | IC50 [3] [nM] |
| --- | --- | --- | --- |
| 0.23 | 0.4 | O=C(Nc1cn(Cc2nnnn2CCN2CCOCC2)nc1-c1cc(Cl)ccc1OC(F)F)c1cnn2cccnc12 [Example 5, N-[3-[5-chloro-2-(difluoromethoxy)phenyl]-1-[[1-(2-morpholinoethyl)tetrazol-5-yl]methyl]pyrazol-4-yl]pyrazolo[1,5-a]pyrimidine-3-carboxamide] | 15 |
| 0.24 | 0.48 | O=C(Nc1cn(Cc2nnn(C3CCN(C4CCOCC4)CC3)n2)nc1-c1cc(Cl)ccc1OC(F)F)c1cnn2cccnc12 [Example 9, N-[3-[5-chloro-2-(difluoromethoxy)phenyl]-1-[[2-(1-tetrahydropyran-4-yl-4-piperidyl)tetrazol-5-yl]methyl]pyrazol-4-yl]pyrazolo[1,5-a]pyrimidine-3-carboxamide] | 13 |
| 0.56 | 0.55 | CN1CC(Cn2nnnc2Cn2cc(NC(=O)c3cnn4cccnc34)c(-c3cc(OC(F)F)ccc3OC(F)F)n2)C1 [Example 33, N-[3-[2,5-bis(difluoromethoxy)phenyl]-1-[[1-[(1-methylazetidin-3-yl)methyl]tetrazol-5-yl]methyl]pyrazol-4-yl]pyrazolo[1,5-a]pyrimidine-3-carboxamide] | 51 |
| 0.69 | 1.3 | CN1CCN(CCn2nnc(Cn3cc(NC(=O)c4cnn5cccnc45)c(-c4cc(Cl)ccc4OC(F)F)n3)n2)CC1 [Example 39, N-[3-[5-chloro-2-(difluoromethoxy)phenyl]-1-[[2-[2-(4-methylpiperazin-1-yl)ethyl]tetrazol-5-yl]methyl]pyrazol-4-yl]pyrazolo[1,5-a]pyrimidine-3-carboxamide] | 36 |
| 0.68 | 0.78 | O=C(Nc1cn(Cc2nnn(CCN3CCNCC3)n2)nc1-c1cc(Cl)ccc1OC(F)F)c1cnn2cccnc12 [Example 40, N-[3-[5-chloro-2-(difluoromethoxy)phenyl]-1-[[2-(2-piperazin-1-ylethyl)tetrazol-5-yl]methyl]pyrazol-4-yl]pyrazolo[1,5-a]pyrimidine-3-carboxamide] | 86 |
| 0.2 | 0.32 | CSc1ccc(OC(F)F)c(-c2nn(Cc3nnnn3CCN(C)C)cc2NC(=O)c2cnn3cccnc23)c1 [Example 41, N-[3-[2-(difluoromethoxy)-5-methylsulfanyl-phenyl]-1-[[1-[2-(dimethylamino)ethyl]tetrazol-5-yl]methyl]pyrazol-4-yl]pyrazolo[1,5-a]pyrimidine-3-carboxamide] | 14 |
